The text below walks through data of patent US8633205B2, “Substituted pyrrolo[2,3-d]pyrimidines as inhibitors of protein kinases” (Vertex Pharmaceuticals Incorporated, priority 2005, dated 2014).

Holding throughout (type): biochemical
One test has as its target JAK2 (Homo sapiens, UniProt O60674). The test can be described thus: JAK2 Inhibition Assay. The settings on record: 15 μM poly(Glu)4Tyr, 12 μM ATP; read-out: JAK2 enzyme inhibition (Ki). The protocol:
(§1) Compounds were screened for their ability to inhibit JAK using the […] below. Reactions were carried out in a kinase buffer containing 100 mM HEPES (pH 7.4), 1 mM DTT, 10 mM MgCl2, 25 mM NaCl, and 0.01% BSA.
(§2) Substrate concentrations in the assay were 5 μM ATP (200 uCi/μmole ATP) 1 μM poly(Glu)4Tyr. Reactions were carried out at 25 ° C. and 1 nM JAK3.
(§3) To each well of a 96 well polycarbonate plate was added 1.5 μl of a JAK3 inhibitor along with 50 μl of kinase buffer containing 2 μM poly(Glu)4Tyr and 10 μM ATP. This was then mixed and 50 μl of kinase buffer 2 nM JAK3 enzyme was added to start the reaction. After 20 minutes at room temperature (25C), the reaction was stopped with 50 μl of 20% trichloroacetic acid (TCA) that also contained 0.4 mM ATP. The entire contents of each well were then transferred to a 96 well glass fiber filter plate using a TomTek Cell Harvester. After washing, 60 μl of scintillation fluid was added and ^33P incorporation detected on a Perkin Elmer TopCount.
As described above in Example 11 except that JAK-2 enzyme is used, the final poly(Glu)4Tyr concentration is 15 μM, and final ATP concentration is 12 μM.

The next test addresses T1, JAK3 (Homo sapiens, UniProt P52333).
T1 sequence (P52333 1-1124): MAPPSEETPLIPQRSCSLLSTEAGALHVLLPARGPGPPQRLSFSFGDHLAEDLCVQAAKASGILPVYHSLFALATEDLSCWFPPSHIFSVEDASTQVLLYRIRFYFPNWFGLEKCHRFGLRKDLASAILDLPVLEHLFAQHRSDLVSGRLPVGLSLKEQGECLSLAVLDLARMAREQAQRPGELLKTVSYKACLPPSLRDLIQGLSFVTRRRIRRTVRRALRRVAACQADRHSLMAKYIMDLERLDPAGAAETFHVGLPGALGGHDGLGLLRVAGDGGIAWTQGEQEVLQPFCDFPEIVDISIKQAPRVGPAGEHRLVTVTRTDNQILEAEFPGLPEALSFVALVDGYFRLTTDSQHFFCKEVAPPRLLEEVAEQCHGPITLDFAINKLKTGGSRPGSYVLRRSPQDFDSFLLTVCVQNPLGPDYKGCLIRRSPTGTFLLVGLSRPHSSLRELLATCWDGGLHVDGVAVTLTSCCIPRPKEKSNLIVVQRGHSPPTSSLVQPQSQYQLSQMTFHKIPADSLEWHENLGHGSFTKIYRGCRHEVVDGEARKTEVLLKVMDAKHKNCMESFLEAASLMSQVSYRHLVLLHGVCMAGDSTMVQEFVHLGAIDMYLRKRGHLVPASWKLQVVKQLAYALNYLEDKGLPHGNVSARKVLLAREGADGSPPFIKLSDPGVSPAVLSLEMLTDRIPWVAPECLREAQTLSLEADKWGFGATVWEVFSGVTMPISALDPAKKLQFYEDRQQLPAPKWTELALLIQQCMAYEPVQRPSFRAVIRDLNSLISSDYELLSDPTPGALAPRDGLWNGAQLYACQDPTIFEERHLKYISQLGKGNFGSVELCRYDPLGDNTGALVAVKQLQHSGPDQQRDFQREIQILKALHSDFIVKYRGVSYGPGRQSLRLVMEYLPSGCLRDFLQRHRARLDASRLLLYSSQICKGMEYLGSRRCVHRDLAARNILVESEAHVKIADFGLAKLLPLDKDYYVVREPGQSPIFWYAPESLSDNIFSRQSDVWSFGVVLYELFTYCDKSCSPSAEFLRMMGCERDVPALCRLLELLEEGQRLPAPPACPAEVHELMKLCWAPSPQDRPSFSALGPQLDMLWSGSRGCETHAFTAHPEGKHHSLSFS
The test can be described thus: JAK3 Inhibition Assay. The settings on record: 1 μM poly(Glu)4Tyr, 5 μM ATP, 1 nM JAK3, 25 °C; read-out: JAK3 enzyme inhibition (Ki). As for the experimental part: as §1, §2, §3

A further test concerns the target PKA (Homo sapiens, UniProt P17612). The test can be described thus: PKA Inhibition Assay (coupled enzyme assay). The note with it: 50 μM ATP, 80 μM Kemptide, 18 nM PKA, 30 °C. The protocol:
Compounds were screened for their ability to inhibit PKA using a standard coupled enzyme assay (Fox et al., Protein Sci, 1998, 7, 2249). Assays were carried out in a mixture of 100 mM HEPES (pH 7.5), 10 mM MgCl2, 25 mM NaCl, 1 mM DTT and 3% DMSO. Final substrate concentrations in the assay were 50 μM ATP (Sigma Chemicals) and 80 μM peptide (Kemptide, American Peptide, Sunnyvale, Calif.). Assays were carried out at 30 ° C. and 18 nM PKA. Final concentrations of the components of the coupled enzyme system were 2.5 mM phosphoenolpyruvate, 300 μM NADH, 30 μg/ml pyruvate kinase and 10 μg/ml lactate dehydrogenase.
An assay stock buffer solution was prepared containing all of the reagents listed above, with the exception of ATP, and the test compound of the present invention. 55 μl of the stock solution was placed in a 96 well plate followed by addition of 2 μl of DMSO stock containing serial dilutions of the test compound of the present invention (typically starting from a final concentration of 5 μM). The plate was preincubated for 10 minutes at 30° C. and the reaction initiated by addition of 5 μl of ATP (final concentration 50 μM). Initial reaction rates were determined with a Molecular Devices SpectraMax Plus plate reader over a 15 minute time course. IC50 and Ki data were calculated from non-linear regression analysis using the Prism software package (GraphPad Prism version 3.0a for Macintosh, GraphPad Software, San Diego, Calif., USA).

The next test concerns the target T2, ROCK (Homo sapiens, UniProt Q13464).
T2 construct: ROCK I (AA 6-553)
The test can be described thus: ROCK Inhibition Assays. The settings on record: read-out: ROCK enzyme inhibition (Ki). As for the experimental part:
Compounds are screened for their ability to inhibit ROCK I (AA 6-553) activity using a standard coupled enzyme system (Fox et al. Protein Sci. 7: 2249, 1998). Reactions are carried out in a solution containing 100 mM HEPES (pH 7.5), 10 mM MgCl2, 25 mM NaCl, 2 mM DTT and 1.5% DMSO. Final substrate concentrations in the assay are 45 μM ATP (Sigma Chemicals, St Louis, Mo.) and 200 μM peptide (American Peptide, Sunnyvale, Calif.). Reactions are carried out at 30 ° C. and 45 nM ROCK I. Final concentrations of the components of the coupled enzyme system are 2.5 mM phosphoenolpyruvate, 350 μM NADH, 30 μg/ml pyruvate kinase and 10 μg/ml lactate dehydrogenase.
Compounds are screened for their ability to inhibit ROCK using a standard radioactive enzyme assay. Assays are carried out in a solution containing 100 mM HEPES (pH 7.5), 10 mM MgCl2, 25 mM NaCl, 2 mM DTT and 1.5% DMSO. Final substrate concentrations in the assay are 13 μM [γ-^33P] ATP (25 mCi ^33P ATP/mmol ATP, Perkin Elmer, Cambridge, Mass./Sigma Chemicals, St Louis, Mo.) and 27 μM Myelin Basic Protein (MBP). Final enzyme concentration in the assay is 5 nM ROCK. Assays are carried out at room temperature. 1.5 μl of DMSO stock containing serial dilutions of the compound of the present invention (concentrations ranging from 10 μM to 2.6 nM) is placed in a 96 well plate. 50 μl of Solution 1 (100 mM HEPES (pH 7.5), 10 mM MgCl2, […] [γ-^33P] ATP) is added to the plate. The reaction is initiated by addition of 50 μl of Solution 2 (100 mM HEPES (pH 7.5), 10 mM MgCl2, 4 mM DTT, […] and 10 nM ROCK). After 2 hours the reaction is quenched with 50 μL of 30% trichloroacetic acid (TCA, Fisher) containing 9 mM ATP. Transfer of 140 μL of the quenched reaction to a glass fiber filter plate (Corning, Cat. No.3511) is followed by washing 3 times with 5% TCA. 50 μL of Optima Gold scintillation fluid (Perkin Elmer) is added and the plates are counted on a Top Count (Perkin Elmer). After removing mean background values for all of the data points the data is fit using Prism software to obtain a Ki(app).

Bounds are passed on as bounds.

T2 sequence (Q13464 6-553): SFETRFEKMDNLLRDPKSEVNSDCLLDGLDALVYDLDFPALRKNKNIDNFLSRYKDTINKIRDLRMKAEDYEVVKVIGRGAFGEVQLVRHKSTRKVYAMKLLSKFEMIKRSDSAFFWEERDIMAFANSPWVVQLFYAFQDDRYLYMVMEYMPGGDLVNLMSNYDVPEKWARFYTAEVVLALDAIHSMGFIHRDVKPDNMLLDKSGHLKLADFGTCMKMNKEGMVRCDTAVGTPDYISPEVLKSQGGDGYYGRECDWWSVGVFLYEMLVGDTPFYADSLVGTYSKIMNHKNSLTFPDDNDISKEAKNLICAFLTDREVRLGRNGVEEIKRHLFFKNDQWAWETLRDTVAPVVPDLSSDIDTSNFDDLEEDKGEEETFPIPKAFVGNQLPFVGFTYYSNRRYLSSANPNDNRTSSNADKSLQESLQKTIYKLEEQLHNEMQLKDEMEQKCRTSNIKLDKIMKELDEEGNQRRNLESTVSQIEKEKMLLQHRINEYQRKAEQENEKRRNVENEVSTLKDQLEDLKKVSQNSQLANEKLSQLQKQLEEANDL
JAK2, sequence (O60674 whole entry): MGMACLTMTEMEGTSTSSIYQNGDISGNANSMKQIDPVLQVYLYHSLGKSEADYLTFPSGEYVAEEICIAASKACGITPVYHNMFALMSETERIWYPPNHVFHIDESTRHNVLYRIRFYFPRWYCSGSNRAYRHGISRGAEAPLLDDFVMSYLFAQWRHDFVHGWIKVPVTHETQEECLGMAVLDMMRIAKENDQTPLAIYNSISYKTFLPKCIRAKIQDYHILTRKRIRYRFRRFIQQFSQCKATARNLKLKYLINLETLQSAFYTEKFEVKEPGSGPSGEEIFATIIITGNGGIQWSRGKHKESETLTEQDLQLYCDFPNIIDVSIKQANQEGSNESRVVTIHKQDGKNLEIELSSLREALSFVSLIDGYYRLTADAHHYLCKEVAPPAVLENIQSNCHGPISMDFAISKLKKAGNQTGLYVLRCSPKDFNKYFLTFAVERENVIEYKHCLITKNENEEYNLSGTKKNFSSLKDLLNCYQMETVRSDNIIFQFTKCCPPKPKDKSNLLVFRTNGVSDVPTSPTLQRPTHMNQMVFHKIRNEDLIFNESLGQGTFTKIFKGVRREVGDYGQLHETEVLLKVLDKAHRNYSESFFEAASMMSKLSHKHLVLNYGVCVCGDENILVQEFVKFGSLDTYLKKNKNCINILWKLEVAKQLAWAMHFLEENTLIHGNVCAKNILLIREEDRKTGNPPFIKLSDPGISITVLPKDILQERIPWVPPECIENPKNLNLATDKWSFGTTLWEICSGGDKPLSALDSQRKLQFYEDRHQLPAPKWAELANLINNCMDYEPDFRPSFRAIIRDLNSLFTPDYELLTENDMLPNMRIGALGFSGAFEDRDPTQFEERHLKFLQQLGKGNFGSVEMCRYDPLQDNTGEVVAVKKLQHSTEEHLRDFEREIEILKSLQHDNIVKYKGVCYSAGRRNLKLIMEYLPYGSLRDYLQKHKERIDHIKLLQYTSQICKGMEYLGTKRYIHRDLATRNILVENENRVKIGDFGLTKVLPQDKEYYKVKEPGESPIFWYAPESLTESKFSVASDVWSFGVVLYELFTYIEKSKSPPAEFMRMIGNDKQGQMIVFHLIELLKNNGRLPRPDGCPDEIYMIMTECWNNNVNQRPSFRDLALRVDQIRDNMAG

In the case of `C1=C(c2ncnc3[nH]ccc23)CCC1` [Compound 1, 4-cyclopentenyl-7H-pyrrolo[2,3-d]pyrimidine], the Ki was under 500 nM at JAK2, under 500 nM on JAK3, 500 to 5000 nM at PKA and 500 to 5000 nM on ROCK.
With `C1=C(c2ncnc3[nH]ccc23)CCCC1` [Compound 2], the Ki was under 500 nM at JAK2, under 500 nM at JAK3, 500 to 5000 nM at PKA and 500 to 5000 nM on ROCK.
`c1nc(C2CCCC2)c2cc[nH]c2n1` [Compound 3, 4-cyclopentyl-7H-pyrrolo[2,3-d]pyrimidine]: the Ki at JAK2, at JAK3, on PKA and on ROCK was 500 to 5000 nM throughout.
As for `C(=C\c1ncnc2[nH]ccc12)/c1ccccc1` [Compound 4, 4-styryl-7H-pyrrolo[2,3-d]pyrimidine], the Ki at JAK2 was under 500 nM; at JAK3 it was under 500 nM; on PKA, 500 to 5000 nM; on ROCK, 500 to 5000 nM.
For `Fc1ccc(/C=C/c2ncnc3[nH]ccc23)cc1` [Compound 5, 4-(4-fluorostyryl)-7H-pyrrolo[2,3-d]pyrimidine], the Ki at JAK2 is under 500 nM; on JAK3 it was under 500 nM; at PKA, 500 to 5000 nM; at ROCK, 500 to 5000 nM.
Turning to `Clc1ccc(/C=C/c2ncnc3[nH]ccc23)cc1` [Compound 6, 4-(4-chlorostyryl)-7H-pyrrolo[2,3-d]pyrimidine], the Ki is under 500 nM on JAK2, under 500 nM on JAK3, 500 to 5000 nM on PKA and 500 to 5000 nM on ROCK.
For `FC(F)(F)c1ccc(/C=C/c2ncnc3[nH]ccc23)cc1` [Compound 7, 4-(4-(trifluoromethyl)styryl)-7H-pyrrolo[2,3-d]pyrimidine], the inhibition constant (Ki) is under 500 nM at JAK2, under 500 nM at JAK3, 500 to 5000 nM on PKA and 500 to 5000 nM at ROCK.
Regarding `C=C(c1ccccc1)c1ncnc2[nH]ccc12` [Compound 8, 4-(1-phenylvinyl)-7H-pyrrolo[2,3-d]pyrimidine], the Ki at JAK2 was over 5000 nM; on JAK3 it was 500 to 5000 nM; at PKA, 500 to 5000 nM; at ROCK it was 500 to 5000 nM.
Regarding `CC(C)(C)OC(=O)N1CC=C(c2ncnc3[nH]ccc23)CC1` [Compound 9], the Ki on JAK2 was under 500 nM; at JAK3, under 500 nM; at PKA, 500 to 5000 nM; at ROCK, 500 to 5000 nM.
For the compound `C1=C(c2ncnc3[nH]ccc23)CCNC1` [Compound 10], the Ki on JAK2 was over 5000 nM; at JAK3, over 5000 nM; on PKA, 500 to 5000 nM; at ROCK, 500 to 5000 nM.
Consider `CC1CCCC=C1c1ncnc2[nH]ccc12` (stereo not drawn) [Compound 11], for which the Ki on JAK2 was 500 to 5000 nM; at JAK3 it was under 500 nM; at PKA it was 500 to 5000 nM; at ROCK it was 500 to 5000 nM.
Turning to `C=C(c1ncnc2[nH]ccc12)C1CCCCC1` [Compound 12], the Ki on JAK2, at PKA and at ROCK was 500 to 5000 nM in each case.
In the case of `C1=C(c2ncnc3[nH]ccc23)CCSC1` [Compound 13], the Ki on JAK2 was under 500 nM; at JAK3 it was under 500 nM; on PKA it was 500 to 5000 nM; at ROCK, 500 to 5000 nM.
For the compound `C=Cc1ncnc2[nH]ccc12` [Compound 14], the Ki on JAK2, on JAK3, on PKA and at ROCK was 500 to 5000 nM in each case.
On to `CC(=O)N1CC=C(c2ncnc3[nH]ccc23)CC1` [Compound 15], for which the inhibition constant Ki is over 5000 nM at JAK2, over 5000 nM at JAK3, 500 to 5000 nM at PKA and 500 to 5000 nM at ROCK.
In the case of `O=C(CC(F)(F)F)N1CC=C(c2ncnc3[nH]ccc23)CC1` [Compound 16], the inhibition constant Ki on JAK2 is 500 to 5000 nM; at JAK3, over 5000 nM; on PKA, 500 to 5000 nM; on ROCK, 500 to 5000 nM.
Turning to `N#CCC(=O)N1CC=C(c2ncnc3[nH]ccc23)CC1` [Compound 17], the Ki was under 500 nM on JAK2, 500 to 5000 nM on JAK3, 500 to 5000 nM on PKA and 500 to 5000 nM on ROCK.
Regarding `C=C(c1ncnc2[nH]ccc12)C1CCCC1` [Compound 18], the Ki at JAK2 was under 500 nM; at JAK3, under 500 nM; at PKA, 500 to 5000 nM; at ROCK, 500 to 5000 nM.
Regarding `CC1CC=C(c2ncnc3[nH]ccc23)C1C` (stereo not drawn) [Compound 19], the inhibition constant (Ki) at JAK2 is under 500 nM; on JAK3 it was under 500 nM; at PKA it was 500 to 5000 nM; on ROCK, 500 to 5000 nM.
